Results published in patent US9890407B2, “Method for synthesizing cellulose in vitro” (University of Virginia Patent Foundation, priority 2013, dated 2018).

System: Rs BcsA-B complex
Assay: Cellulose synthase sedimentation assay (3H-labeled water-insoluble cellulose, scintillation counting)
Format: biochemical, Rhodobacter sphaeroides
Details: increasing nucleotide concentrations, 0.5 mM UDP-Glc, PL-reconstituted BcsA-B
Procedure: (FIG. 4A) Enzyme-coupled cellulose synthesis assays were performed as described in FIG. 3 in the absence or presence of 0.1 mg/ml E. coli BesZ. […] Inset: Radioactive sedimentation assay performed with ND-reconstituted BcsA-B synthesizing cellulose in the absence or presence of BcsZ. […] The obtained product is quantified relative to the polymer formed in the absence of any nucleoside diphosphate.
FIG. 9A-9B (also referred to as Example 1, Supplementary FIG. 3): Cation selectivity and pH optimum of cellulose synthase. (FIG. 9A) Cellulose synthesis reactions were performed in the presence of 20 mM of the indicated cations or in the absence of any additional divalent cations with and without addition of 20 mM EDTA. The activities are shown relative to the activity in the presence of magnesium. […] All activity assays were performed for 45 min at 37° C. with 1 μM PLs-reconstituted. Rs BcsA-B and by quantifying the accumulation of ^3H-labeled water insoluble cellulose as described.
Following incubation at 37° C. for 45 min, the polymerization reaction was terminated by addition of 2% SDS and the water-insoluble polymer was pelleted by centrifugation at 15,000 rpm at room temperature (RT). The obtained pellet was resuspended in 20 μL 50 mM Tris pH 7.5, 0.1 M NaCl and spotted at the origin of a descending Whatman-2MM chromatography paper, which was developed in an aqueous solution of 60% ethanol. For enzymatic degradation, the pellet was resuspended in 20 μL 50 mM sodium acetate pH 4.5 and 100 mM NaCl and was digested with 0.1 mg/ml of endo-β-1,4- or endo-β-1,3 glucanase from Aspergillus niger (TCI) or Trichoderma sp. (Megazyme), respectively. Following paper chromatography, the high molecular weight polymer retained at the origin was quantified by scintillation counting.
Following synthesis, the reactions were treated as described above.

SMILES | inhibition of cellulose synthesis by nucleoside diphosphates
Nc1nc2c(ncn2[C@@H]2O[C@H](COP(=O)(O)OP(=O)(O)O)[C@@H](O)[C@H]2O)c(=O)[nH]1 [guanosine-diphosphate] | do not inhibit
Nc1ncnc2c1ncn2[C@@H]1O[C@H](COP(=O)(O)OP(=O)(O)O)[C@@H](O)[C@H]1O [adenosine-diphosphate] | do not inhibit
